In one test the target is T1, EGFR (Homo sapiens, UniProt P00533).
T1 construct: amino acids 645–1186; His6 (N); made in house; host or cells: Sf-9 insect cells (baculovirus; pBlueBacHis2B / pFASTBacHTc)
Briefly: EGFR-TK inhibitory assay. The format is biochemical. The following applies: read-out: EGFR inhibition IC50 ± SEM. The method, then: 4.2.1.3. EGFR inhibitory assay
Sf-9 cells were infected for 72h for protein expression. […]
centrifugation for 20 min.
Histidine-linked proteins were first eluted with 250 and then […]
using wash buffer. Europium-tagged antiphosphotyrosine antibody (75 µL, 400 ng) was added to each well followed by incubation of 1h and then washing of the plates using buffer. The enhancement solution was added to each well and the signal was recorded at excitation and […]
The autophosphorylation percentage inhibition by compounds was calculated using the following equation: […]
(1 picture or pasted object on this page, not shown here)

A further test addresses T2, BRAF^V600E (Homo sapiens, UniProt P15056, V600E).
T2 construct: Mouse full-length GST-tagged BRAFV600E; GST; purchased Invitrogen PV3849
Briefly: BRAF^V600E kinase inhibitory assay. The format is biochemical, Mouse. Particulars: read-out: BRAF^V600E inhibition IC50 ± SEM. As to the method:
Refer to Supplementary Appendix A for more details. […]
4.2.1.4. BRAF kinase assay […]
against BRAF. Mouse full-length GST-tagged BRAFV600E (7.5 ng, Invitrogen, PV3849) was pre-incubated with drug (1 µL) and assay dilution buffer (4 µL) for 60 min at 25 °C. In assay dilution buffer, a solution (5 µL) containing MgCl2 (30 mM), ATP (200 µM), recombinant human full length (200 ng) […] N-terminal His-tagged MEK1 (Invitrogen) was added to start the assay, subsequent to incubation for 25 min at 25 °C. The assay was stopped using 5X protein denaturing buffer (LDS) solution (5 µL). To further denature the protein, heat (70° C) was applied for 5 min.
10 µL of each reaction was loaded into the precast plates and electrophoresis was allowed to proceed. After completion of electrophoresis, the front part of the precast gel plate (holding hot ATP) was cut and afterwards cast-off. The dried gel was developed using a phosphor screen. A […]
served as positive control. […]
(FITC) and propidium iodide (PI) staining kit (BD Pharmingen, San Diego, USA). […]
4.3. Statistical analysis
Computerized Prism 5 program was used to statistically analyzed data using one-way ANOVA test followed by Tukey’s as post ANOVA for multiple comparison at P ≤.05. Data were presented

SMILES strings stand for the structures.

T2 sequence (P15056 2-766 V600E limits assumed): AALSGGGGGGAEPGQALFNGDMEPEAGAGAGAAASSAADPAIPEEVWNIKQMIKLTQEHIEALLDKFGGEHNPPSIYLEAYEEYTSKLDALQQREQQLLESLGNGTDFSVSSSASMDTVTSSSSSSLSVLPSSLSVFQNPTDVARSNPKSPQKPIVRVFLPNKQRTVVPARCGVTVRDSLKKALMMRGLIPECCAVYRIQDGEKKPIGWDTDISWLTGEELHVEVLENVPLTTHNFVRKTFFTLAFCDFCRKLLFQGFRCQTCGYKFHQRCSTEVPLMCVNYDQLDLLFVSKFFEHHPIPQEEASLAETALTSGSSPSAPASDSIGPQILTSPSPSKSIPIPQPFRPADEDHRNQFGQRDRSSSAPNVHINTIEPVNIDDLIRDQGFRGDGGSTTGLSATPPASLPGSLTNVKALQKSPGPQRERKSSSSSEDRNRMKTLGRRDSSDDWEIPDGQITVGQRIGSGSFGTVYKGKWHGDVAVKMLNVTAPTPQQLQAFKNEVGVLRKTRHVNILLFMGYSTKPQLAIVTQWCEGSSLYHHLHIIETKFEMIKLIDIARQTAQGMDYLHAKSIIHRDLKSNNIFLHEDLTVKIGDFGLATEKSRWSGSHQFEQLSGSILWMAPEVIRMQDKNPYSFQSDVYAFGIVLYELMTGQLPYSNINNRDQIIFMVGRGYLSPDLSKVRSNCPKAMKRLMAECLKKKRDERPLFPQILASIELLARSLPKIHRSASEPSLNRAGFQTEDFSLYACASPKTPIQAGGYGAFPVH
T1 sequence (P00533 669-1210): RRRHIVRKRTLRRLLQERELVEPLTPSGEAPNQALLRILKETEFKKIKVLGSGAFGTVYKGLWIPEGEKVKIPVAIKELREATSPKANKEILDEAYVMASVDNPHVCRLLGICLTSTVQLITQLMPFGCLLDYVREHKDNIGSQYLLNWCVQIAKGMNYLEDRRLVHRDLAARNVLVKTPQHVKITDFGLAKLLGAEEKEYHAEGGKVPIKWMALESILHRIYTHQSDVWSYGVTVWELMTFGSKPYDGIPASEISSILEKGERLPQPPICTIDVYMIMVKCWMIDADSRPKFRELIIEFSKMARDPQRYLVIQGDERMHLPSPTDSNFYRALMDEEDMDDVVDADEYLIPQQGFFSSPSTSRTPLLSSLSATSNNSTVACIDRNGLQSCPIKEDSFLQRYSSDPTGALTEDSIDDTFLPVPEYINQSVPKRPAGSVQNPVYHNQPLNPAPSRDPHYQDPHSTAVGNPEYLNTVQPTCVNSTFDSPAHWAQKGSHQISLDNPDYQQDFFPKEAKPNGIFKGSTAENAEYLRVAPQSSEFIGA

For orientation: IC50 means the concentration that gives 50% inhibition. In the case of `O=c1c2ccccc2nc(SCc2nc(-c3ccc(Cl)cc3)no2)n1-c1ccccc1` [Compound 9b, 2-((3-(4-Chlorophenyl)-1,2,4-oxadiazol-5-yl)methylthio)-3 phenylquinazolin-4(3H)-one], the values for the IC50 at EGFR and at BRAF^V600E were 57 ± 4 nM and 48 ± 4 nM, respectively.

These data come from publication PMC11393688, “Design and synthesis of new 1,2,4-oxadiazole/quinazoline-4-one hybrids with antiproliferative activity as multitargeted inhibitors” (Frontiers in Chemistry, 2024).
